Consider 18 compounds from patent publication US20240383856A1 (Zedira GmbH, priority 2021, published 2024).

pIC50: −log10 of the molar value.

A short description of series [1]: logD by shake flask method (octanol / PBS pH 7.4, HPLC). In kind it is physicochemical. The note with it: octanol / PBS pH 7.4, shake flask. In outline: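 Shake-flask partition of compound between octanol and phosphate-buffered saline at pH 7.4, with each phase quantified by HPLC to give LogD.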
The nature of series [2]: Caco-2 permeability assay (CacoReady kit). The note with it: human, Caco-2, Caco-2 barrier, CacoReady kit; above 1×10^−6 cm/s classified as permeable. It is filed as in vitro ADME. Put shortly:
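Apparent permeability coefficients (Papp) were measured across Caco-2 cell barriers using a ready-to-use kit run per the supplier's protocol. Values serve as a predictor of oral/intestinal bioavailability.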
(Passage across Caco-2 layers is used to estimate intestinal permeability.)

In series [3] the target is T1, recombinant human transglutaminase 2 (Homo sapiens, UniProt P21980).
T1 construct: purchased Zedira T022
T1 sequence (P21980 1-687): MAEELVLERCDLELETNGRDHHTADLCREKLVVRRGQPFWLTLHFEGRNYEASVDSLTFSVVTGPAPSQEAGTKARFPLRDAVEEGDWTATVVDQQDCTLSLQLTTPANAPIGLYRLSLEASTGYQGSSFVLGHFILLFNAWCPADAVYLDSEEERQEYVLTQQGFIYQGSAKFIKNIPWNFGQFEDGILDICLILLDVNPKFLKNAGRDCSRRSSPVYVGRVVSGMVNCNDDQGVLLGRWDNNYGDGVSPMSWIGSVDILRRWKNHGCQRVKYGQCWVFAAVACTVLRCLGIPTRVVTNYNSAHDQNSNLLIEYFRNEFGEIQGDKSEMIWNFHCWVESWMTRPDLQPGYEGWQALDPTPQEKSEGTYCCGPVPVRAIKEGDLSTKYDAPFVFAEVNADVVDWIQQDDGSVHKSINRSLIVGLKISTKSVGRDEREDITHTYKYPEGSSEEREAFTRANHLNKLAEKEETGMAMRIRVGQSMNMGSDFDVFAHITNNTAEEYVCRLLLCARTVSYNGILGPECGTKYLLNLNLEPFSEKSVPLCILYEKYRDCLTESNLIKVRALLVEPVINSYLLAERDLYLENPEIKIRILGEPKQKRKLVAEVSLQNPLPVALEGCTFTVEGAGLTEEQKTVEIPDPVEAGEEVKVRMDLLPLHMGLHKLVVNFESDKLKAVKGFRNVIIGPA
As to the kind of experiment: Transglutaminase assay (DCC-assay): incorporation of dansylcadaverine into dimethylcasein. It is filed as biochemical. The note with it: recombinant human TG2 10 nM; dansylcadaverine incorporation into dimethylcasein; read-out: IC50 TG2. In outline: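 Recombinant human TG2 (10 nM final) incorporates dansylcadaverine into N,N-dimethylcasein. Reaction mix: 50 mM Tris-HCl, 10 mM CaCl2, 10 mM glutathione, 2.5% glycerol, 16.7 µM dansylcadaverine, 4 µM dimethylcasein, 200 mM NaCl, pH 8.0. Fluorescence (ex 330/em 500 nm) was followed 30 min at 37 °C; the 20–30 min slope, expressed as % of 2% DMSO control, gave IC50.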

`CNC(=O)C(=O)CC[C@H](NC(=O)c1nc(Br)cs1)C(=O)Nc1cccn(CC(=O)NC2C3CC4CC(C3)CC2C4)c1=O` (stereo partly drawn) [II-39, (S)-2-(4-bromothiazole-2-carboxamido)-N1-(1-(2-(2-adamantylamino)-2-oxoethyl)-2-oxo-1,2-dihydropyridin-3-yl)-N6-methyl-5-oxohexanediamide] registered a logD in series [1] of 1 to 3. In series [2], this compound displayed a Papp of 1 to 10 ×10⁻⁶ cm/s. In addition, in series [3], the pIC50 is 6.40 to 7.40.

The compound `CNC(=O)C(=O)CC[C@H](NC(=O)c1cc(Br)cs1)C(=O)Nc1cccn(CC(=O)NC2C3CC4CC(C3)CC2C4)c1=O` (stereo partly drawn) [II-40, (S)-2-(4-bromothiophene-2-carboxamido)-N1-(1-(2-(2-adamantylamino)-2-oxoethyl)-2-oxo-1,2-dihydropyridin-3-yl)-N6-methyl-5-oxohexanediamide] yielded a logD in series [1] of 3 to 5. The compound also yielded a Papp in series [2] of less than 1 ×10⁻⁶ cm/s. The pIC50 in series [3] is more than 7.40.

In series [1], `CNC(=O)C(=O)CC[C@H](NC(=O)c1scc(Br)c1C)C(=O)Nc1cccn(CC(=O)NC2C3CC4CC(C3)CC2C4)c1=O` (stereo partly drawn) [II-41, (S)-2-(4-bromo-3-methylthiophene-2-carboxamido)-N1-(1-(2-(2-adamantylamino)-2-oxoethyl)-2-oxo-1,2-dihydropyridin-3-yl)-N6-methyl-5-oxohexanediamide] showed a logD of 3 to 5. Further, in series [2], the Papp is 1 to 10 ×10⁻⁶ cm/s. Further, the pIC50 in series [3] is 6.40 to 7.40.

`CNC(=O)C(=O)CC[C@H](NC(=O)c1sccc1Br)C(=O)Nc1cccn(CC(=O)NC2C3CC4CC(C3)CC2C4)c1=O` (stereo partly drawn) [II-42, (S)-2-(3-bromothiophene-2-carboxamido)-N1-(1-(2-(2-adamantylamino)-2-oxoethyl)-2-oxo-1,2-dihydropyridin-3-yl)-N6-methyl-5-oxohexanediamide]: in series [1], the logD lay within 1 to 3. For the same compound, the Papp in series [2] was 1 to 10 ×10⁻⁶ cm/s. Also, the pIC50 in series [3] is 6.40 to 7.40.

Take `CNC(=O)C(=O)CC[C@H](NC(=O)c1scc(C)c1Cl)C(=O)Nc1cccn(CC(=O)NC2C3CC4CC(C3)CC2C4)c1=O` (stereo partly drawn) [II-43, (S)-2-(3-chloro-4-methylthiophene-2-carboxamido)-N1-(1-(2-(2-adamantylamino)-2-oxoethyl)-2-oxo-1,2-dihydropyridin-3-yl)-N6-methyl-5-oxohexanediamide]: the logD in series [1] fell in the range of 1 to 3. Also, the Papp in series [2] lay in the range of 1 to 10 ×10⁻⁶ cm/s. Also, the pIC50 in series [3] is 5.60 to 6.40.

The compound `CNC(=O)C(=O)CC[C@H](NC(=O)c1cc(Br)c(Cl)s1)C(=O)Nc1cccn(CC(=O)NC2C3CC4CC(C3)CC2C4)c1=O` (stereo partly drawn) [II-44, (S)-2-(4-bromo-5-chlorothiophene-2-carboxamido)-N1-(1-(2-(2-adamantylamino)-2-oxoethyl)-2-oxo-1,2-dihydropyridin-3-yl)-N6-methyl-5-oxohexanediamide] returned a logD in series [1] of 3 to 5. Also, in series [2], the Papp lay within 1 to 10 ×10⁻⁶ cm/s. Also, the pIC50 in series [3] is more than 7.40.

`CNC(=O)C(=O)CC[C@H](NC(=O)c1cc(Br)c(Br)s1)C(=O)Nc1cccn(CC(=O)NC2C3CC4CC(C3)CC2C4)c1=O` (stereo partly drawn) [II-45, (S)-2-(4,5-dibromothiophene-2-carboxamido)-N1-(1-(2-(2-adamantylamino)-2-oxoethyl)-2-oxo-1,2-dihydropyridin-3-yl)-N6-methyl-5-oxohexanediamide] displayed a logD in series [1] of 3 to 5. The compound further showed a Papp in series [2] of 1 to 10 ×10⁻⁶ cm/s. The pIC50 in series [3] is more than 7.40.

`CNC(=O)C(=O)CC[C@H](NC(=O)c1sc(Br)c(Br)c1OC)C(=O)Nc1cccn(CC(=O)NC2C3CC4CC(C3)CC2C4)c1=O` (stereo partly drawn) [II-46, (S)-2-(4,5-dibromo-3-methoxythiophene-2-carboxamido)-N1-(1-(2-(2-adamantylamino)-2-oxoethyl)-2-oxo-1,2-dihydropyridin-3-yl)-N6-methyl-5-oxohexanediamide] yielded a logD in series [1] of 3 to 5. For the same compound, the Papp in series [2] was less than 1 ×10⁻⁶ cm/s. For the same compound, the pIC50 in series [3] was 6.40 to 7.40.

For `CNC(=O)C(=O)CC[C@H](NC(=O)c1cc(Br)co1)C(=O)Nc1cccn(CC(=O)NC2C3CC4CC(C3)CC2C4)c1=O` (stereo partly drawn) [II-47, (S)-2-(4-bromofuran-2-carboxamido)-N1-(1-(2-(2-adamantylamino)-2-oxoethyl)-2-oxo-1,2-dihydropyridin-3-yl)-N6-methyl-5-oxohexanediamide], the logD in series [1] fell in the range of 1 to 3. In series [2], this compound returned a Papp of 1 to 10 ×10⁻⁶ cm/s. Moreover, the pIC50 in series [3] is more than 7.40.

`CNC(=O)C(=O)CC[C@H](NC(=O)c1cc(Br)c(Br)o1)C(=O)Nc1cccn(CC(=O)NC2C3CC4CC(C3)CC2C4)c1=O` (stereo partly drawn) [II-48, (S)-2-(4,5-dibromofuran-2-carboxamido)-N1-(1-(2-(2-adamantylamino)-2-oxoethyl)-2-oxo-1,2-dihydropyridin-3-yl)-N6-methyl-5-oxohexanediamide] had a logD in series [1] of 3 to 5. Also, in series [2], the Papp lay in the range of 1 to 10 ×10⁻⁶ cm/s. The pIC50 in series [3] was more than 7.40.

The compound `CNC(=O)C(=O)CC[C@H](NC(=O)c1cc(Cl)c(Cl)s1)C(=O)Nc1cccn(CC(=O)NC2C3CC4CC(C3)CC2C4)c1=O` (stereo partly drawn) [II-49, (S)-2-(4,5-dichlorothiophene-2-carboxamido)-N1-(1-(2-(2-adamantylamino)-2-oxoethyl)-2-oxo-1,2-dihydropyridin-3-yl)-N6-methyl-5-oxohexanediamide] came in with a logD in series [1] of 3 to 5. The compound also registered an apparent permeability (Papp) in series [2] of 1 to 10 ×10⁻⁶ cm/s. Also, in series [3], the pIC50 was more than 7.40.

In the case of `CNC(=O)C(=O)CC[C@H](NC(=O)[C@@H]1CCCN1C(C)=O)C(=O)Nc1cccn(CC(=O)NC2C3CC4CC(C3)CC2C4)c1=O` (stereo partly drawn) [II-50, (S)-2-((S)-1-acetylpyrrolidine-2-carboxamido)-N1-(1-(2-(2-adamantylamino)-2-oxoethyl)-2-oxo-1,2-dihydropyridin-3-yl)-N6-methyl-5-oxohexanediamide], the logD in series [1] is less than 1. Further, the apparent permeability (Papp) in series [2] is less than 1 ×10⁻⁶ cm/s. Moreover, in series [3], the pIC50 is more than 7.40.

In turn, `CNC(=O)C(=O)CC[C@H](NC(=O)c1cnnn1C)C(=O)Nc1cccn(CC(=O)NC2C3CC4CC(C3)CC2C4)c1=O` (stereo partly drawn) [II-51, (S)-N1-(1-(2-(2-adamantylamino)-2-oxoethyl)-2-oxo-1,2-dihydropyridin-3-yl)-N6-methyl-2-(1-methyl-1H-1,2,3-triazole-5-carboxamido)-5-oxohexanediamide] returned a logD in series [1] of less than 1. For the same compound, the Papp in series [2] was 1 to 10 ×10⁻⁶ cm/s. For the same compound, the pIC50 in series [3] is 6.40 to 7.40.

In series [1], `CNC(=O)C(=O)CC[C@H](NC(=O)c1nn[nH]n1)C(=O)Nc1cccn(CC(=O)NC2C3CC4CC(C3)CC2C4)c1=O` (stereo partly drawn) [II-52, (S)-N1-(1-(2-(2-adamantylamino)-2-oxoethyl)-2-oxo-1,2-dihydropyridin-3-yl)-N6-methyl-5-oxo-2-(2H-tetrazole-5-carboxamido)hexanediamide] registered a logD of less than 1. Also, in series [2], the Papp is less than 1 ×10⁻⁶ cm/s. Besides, in series [3], the pIC50 was 5.60 to 6.40.

`CNC(=O)C(=O)CC[C@H](NC(=O)c1cnccn1)C(=O)Nc1cccn(CC(=O)NC2C3CC4CC(C3)CC2C4)c1=O` (stereo partly drawn) [II-53, (S)-N1-(1-(2-(2-adamantylamino)-2-oxoethyl)-2-oxo-1,2-dihydropyridin-3-yl)-N6-methyl-5-oxo-2-(pyrazine-2-carboxamido)hexanediamide] showed a logD in series [1] of 1 to 3. For the same compound, in series [2], the apparent permeability (Papp) was less than 1 ×10⁻⁶ cm/s. For the same compound, the pIC50 in series [3] is 6.40 to 7.40.

In the case of `CNC(=O)C(=O)CC[C@H](NC(=O)[C@@H]1CCCN1C)C(=O)Nc1cccn(CC(=O)NC2C3CC4CC(C3)CC2C4)c1=O` (stereo partly drawn) [II-54, (S)-N1-(1-(2-(2-adamantylamino)-2-oxoethyl)-2-oxo-1,2-dihydropyridin-3-yl)-N6-methyl-2-((S)-1-methylpyrrolidine-2-carboxamido)-5-oxohexanediamide], the logD in series [1] was in the range of 1 to 3. In series [2], this compound registered a Papp of less than 1 ×10⁻⁶ cm/s. Also, the pIC50 in series [3] was 6.40 to 7.40.

Consider `CNC(=O)C(=O)CC[C@H](NC(=O)[C@H]1CCNC1)C(=O)Nc1cccn(CC(=O)NC2C3CC4CC(C3)CC2C4)c1=O` (stereo partly drawn) [II-55, (S)-N1-(1-(2-(2-adamantylamino)-2-oxoethyl)-2-oxo-1,2-dihydropyridin-3-yl)-N6-methyl-5-oxo-2-((S)-pyrrolidine-3-carboxamido)hexanediamide], for which the log distribution coefficient (logD) in series [1] is less than 1. In series [2], this compound yielded an apparent permeability (Papp) of less than 1 ×10⁻⁶ cm/s. Moreover, the pIC50 in series [3] was 6.40 to 7.40.

`CNC(=O)C(=O)CC[C@H](NC(=O)[C@@H]1C[C@H](Br)CN1)C(=O)Nc1cccn(CC(=O)NC2C3CC4CC(C3)CC2C4)c1=O` (stereo partly drawn) [II-56, (S)-2-((2S,4S)-4-bromopyrrolidine-2-carboxamido)-N1-(1-(2-(2-adamantylamino)-2-oxoethyl)-2-oxo-1,2-dihydropyridin-3-yl)-N6-methyl-5-oxohexanediamide]: in series [1], the pH-dependent lipophilicity (logD) was in the range of 1 to 3. This compound yielded a Papp in series [2] of less than 1 ×10⁻⁶ cm/s. For the same compound, the pIC50 in series [3] is 6.40 to 7.40.

As usually defined, the logD is lipophilicity at a set pH, counting ionised and neutral species. Read a low logD as lower lipophilicity. In general, Papp refers to a coefficient for how fast a substance crosses the barrier. The low end stands for slow passage, the high end for fast passage. A word on the pIC50: it is the IC50 on a negative log10 scale, so that one unit is a factor of ten.
